Measured values reported in PMC8464955, “Prediction of Drug–Drug Interaction Potential of Tegoprazan Using Physiologically Based Pharmacokinetic Modeling and Simulation” (Pharmaceutics, 2021).
Like-named read-outs stand apart in the source and are kept apart here.

Tests used:
CYP2C9 = molecular target: T1, CYP2C9 (Homo sapiens, UniProt P11712); experiment: Intrinsic clearance in human liver microsomes with CYP inhibitors; assay type: in vitro ADME
T1 construct: from tissue; host or cells: human liver microsomes
Description: (§1) The elimination of the PBPK model consisted of enzyme kinetic and renal clearance (Table 1). Intrinsic clearances (CLint) of tegoprazan by various CYPs were determined by an in vitro study that measured the fraction of CLint inhibited by adding the inhibitors of CYP1A2, CYP2C9, CYP2C19, CYP2D6, and CYP3A to human liver microsomes (in-house data). Based on the in vitro data, an in vitro to in vivo extrapolation (IVIVE) approach was used to estimate the in vivo CLint by each CYP enzyme. Renal clearance as an additional clearance was used from the result of a single-oral-dose study of tegoprazan 100 mg.

CYP2D6 = molecular target: T2, CYP2D6 (Homo sapiens, UniProt P10635); experiment: as above; assay type: in vitro ADME
T2 construct: from tissue; host or cells: human liver microsomes
Description: as §1

CYP2C19 = molecular target: T3, CYP2C19 (Homo sapiens, UniProt P33261); experiment: as above; assay type: in vitro ADME
T3 construct: from tissue; host or cells: human liver microsomes
Description: as §1

CYP1A2 = molecular target: T4, CYP1A2 (Homo sapiens, UniProt P05177); experiment: as above; assay type: in vitro ADME
T4 construct: from tissue; host or cells: human liver microsomes
T4 sequence (P05177 1-516): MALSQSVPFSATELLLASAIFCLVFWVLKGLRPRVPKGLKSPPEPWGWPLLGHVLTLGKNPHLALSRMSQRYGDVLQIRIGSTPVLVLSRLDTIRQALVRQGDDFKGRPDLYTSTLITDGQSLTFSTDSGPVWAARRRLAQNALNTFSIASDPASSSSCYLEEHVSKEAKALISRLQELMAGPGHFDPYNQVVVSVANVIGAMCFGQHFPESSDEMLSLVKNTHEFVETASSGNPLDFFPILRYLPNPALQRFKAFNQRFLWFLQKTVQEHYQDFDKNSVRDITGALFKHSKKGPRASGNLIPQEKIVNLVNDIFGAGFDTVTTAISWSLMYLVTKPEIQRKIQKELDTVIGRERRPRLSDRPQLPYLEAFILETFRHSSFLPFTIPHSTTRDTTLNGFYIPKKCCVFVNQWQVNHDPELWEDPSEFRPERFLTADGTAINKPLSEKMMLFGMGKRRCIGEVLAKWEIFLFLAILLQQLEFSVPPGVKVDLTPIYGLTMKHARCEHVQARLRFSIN
Description: as §1

[1] = Physicochemical properties (log P, pKa), experimental data; details: for pKa: ampholyte
Text: A PBPK model of tegoprazan was built and verified by both the bottom-up approach using in vitro data for maintaining a mechanistic PBPK structure and the top-down approach using clinical PK results for maintaining a descriptive structure (Figure 1). The initial PBPK model of tegoprazan was constructed using physicochemical properties (e.g., molecular weight, log P, pKa), in vitro data (e.g., permeability, intrinsic clearance), and in vivo data (e.g., renal clearance) provided by HK inno.N Corp. (Seoul, Korea). The commercially available software SimCYP simulator v19 (SimCYP Limited, Certara, Sheffield, UK) was used to build the PBPK model and to generate the PK simulations. The PBPK-model-predicted PK profiles and parameters of tegoprazan were compared with the observed PK profiles and parameters from previously conducted clinical studies (Supplementary Table S1). The specific model configuration related to absorption, distribution, and elimination is described below.

[2] = cited from earlier work; for AUCτ Obs. / Cmax Obs.: mean; for Tmax Obs.: median
CYP3A4 = CYP3A4 intrinsic clearance by parameter estimation against clinical data; parameters: species or system human; details: estimated from clinical data, single dose 50 mg, instead of in vitro data
Description: as §1
If the predicted PK profiles and parameters were not close enough to the observed values, the PBPK model was refined by the parameter estimation approach, in which a parameter was optimized with respect to the clinical data. Parameter estimation was conducted using the genetic algorithm method and weighted-least squares as the objective function. Four parameters were simultaneously estimated in the final step of model refinement using clinical data of single-dose PK study of tegoprazan 50 mg (Table 1). The values of Q and VSAC were estimated to reflect the biphasic distribution of tegoprazan, and the value of Kp scalar was estimated because it affected the overall PK profile, especially distribution and clearance. […]

[3] = Parallel artificial membrane permeability assay (PAMPA); assay type: in vitro ADME
Text: The advanced dissolution, absorption, and metabolism model was used. The unbound fraction of the drug in enterocytes (fuGut) and the human jejunum effective permeability (Peff,man) were predicted because these values were not routinely measured (Table 1). The value of fuGut was predicted using the values of in vitro parameters, such as the octanol:water partition coefficient, the fraction of intracellular water, and other distribution-related parameters (in-house data). The value of Peff,man was predicted using parallel artificial membrane permeation assay permeability (in-house data).

[4] = tegoprazan 100 mg BID + clarithromycin 500 mg BID + amoxicillin 1000 mg BID, 7 days
[5] = tegoprazan 100 mg BID alone for 4 days, once on day 5
[6] = tegoprazan 200 mg QD + clarithromycin 500 mg BID for 5 days, ref NCT02052336
[7] = tegoprazan 200 mg QD alone for 5 days, ref NCT02052336

T1 sequence (P11712 whole entry): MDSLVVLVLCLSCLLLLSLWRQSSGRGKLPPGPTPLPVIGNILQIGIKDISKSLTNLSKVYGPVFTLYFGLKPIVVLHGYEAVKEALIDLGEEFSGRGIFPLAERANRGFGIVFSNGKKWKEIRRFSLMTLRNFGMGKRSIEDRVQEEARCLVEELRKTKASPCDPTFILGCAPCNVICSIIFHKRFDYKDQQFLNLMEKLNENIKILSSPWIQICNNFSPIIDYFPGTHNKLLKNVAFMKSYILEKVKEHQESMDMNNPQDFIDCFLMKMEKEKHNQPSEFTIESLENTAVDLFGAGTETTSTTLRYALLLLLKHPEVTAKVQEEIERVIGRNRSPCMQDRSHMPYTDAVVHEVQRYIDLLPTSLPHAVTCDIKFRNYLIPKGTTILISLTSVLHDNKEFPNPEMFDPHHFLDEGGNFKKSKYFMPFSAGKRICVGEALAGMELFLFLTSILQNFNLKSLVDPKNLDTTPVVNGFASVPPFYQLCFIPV
T3 sequence (P33261 whole entry): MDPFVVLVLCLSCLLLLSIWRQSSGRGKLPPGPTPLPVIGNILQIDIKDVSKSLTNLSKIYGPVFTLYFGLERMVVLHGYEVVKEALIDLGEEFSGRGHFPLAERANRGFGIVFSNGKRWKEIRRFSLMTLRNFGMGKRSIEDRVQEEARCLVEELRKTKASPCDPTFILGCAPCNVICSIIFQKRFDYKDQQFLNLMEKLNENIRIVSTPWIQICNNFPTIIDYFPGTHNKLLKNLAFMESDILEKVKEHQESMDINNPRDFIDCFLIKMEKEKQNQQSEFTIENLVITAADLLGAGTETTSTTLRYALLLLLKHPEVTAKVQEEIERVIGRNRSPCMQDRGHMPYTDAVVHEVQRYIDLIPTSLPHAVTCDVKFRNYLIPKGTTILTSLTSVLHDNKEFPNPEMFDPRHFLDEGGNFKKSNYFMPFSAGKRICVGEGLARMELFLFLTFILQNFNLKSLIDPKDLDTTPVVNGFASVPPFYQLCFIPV
T2 sequence (P10635 whole entry): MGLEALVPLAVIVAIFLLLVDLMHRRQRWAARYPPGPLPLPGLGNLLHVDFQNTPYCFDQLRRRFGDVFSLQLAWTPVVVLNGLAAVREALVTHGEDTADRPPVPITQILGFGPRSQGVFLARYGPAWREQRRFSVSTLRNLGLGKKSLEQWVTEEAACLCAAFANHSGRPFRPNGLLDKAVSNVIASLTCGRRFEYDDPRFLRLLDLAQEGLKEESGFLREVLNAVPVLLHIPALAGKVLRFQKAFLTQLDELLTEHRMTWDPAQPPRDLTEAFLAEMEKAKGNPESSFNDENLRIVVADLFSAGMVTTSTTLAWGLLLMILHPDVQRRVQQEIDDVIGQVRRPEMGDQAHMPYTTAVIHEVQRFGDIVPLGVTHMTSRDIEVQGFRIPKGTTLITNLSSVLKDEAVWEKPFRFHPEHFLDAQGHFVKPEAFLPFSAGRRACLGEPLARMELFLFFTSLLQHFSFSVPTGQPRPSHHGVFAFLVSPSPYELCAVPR

- CYP2C9 CLint (CYP2C9): 2.6 μL/min/mg of protein
- CYP2D6 CLint (CYP2D6): 2 μL/min/mg of protein
- CYP2C19 CLint (CYP2C19): 3.6 μL/min/mg of protein
- CYP1A2 CLint (CYP1A2): 2.5 μL/min/mg of protein
- pKa ([1]; read-out: pKa 1): 5.2
- pKa ([1]; read-out: pKa 2): 12
- logP ([1]; octanol/water, read-out: Log P (octanol:water partition coefficient)): 3
- CYP3A4 CLint (CYP3A4): 30.34 μL/min/mg of protein
- Papp [3]: 68.4 ×10⁻⁶ cm/s
SMILES: Cc1nc2cc(C(=O)N(C)C)cc(O[C@H]3CCOc4cc(F)cc(F)c43)c2[nH]1 [tegoprazan]
- DDI between tegoprazan and amoxicillin [2]: negligible
- apparent clearance, DDI study result ([2]; co-administration of clarithromycin): 6.6 L/h
- AUCτ Obs. [2, 4]: 16,045.0 μg∙h/L
- Cmax Obs. [2, 4]: 2285.6 µg/L
- Tmax Obs. [2, 4]: 2.50 h
- AUCτ Obs. [2, 5]: 5955.9 µg·h/L
- Cmax Obs. [2, 5]: 1018.4 µg/L
- Tmax Obs. [2, 5]: 1.30 h
- AUCτ Obs. [2, 6]: 27,796.4 μg∙h/L
- Cmax Obs. [2, 6]: 3096.0 µg/L
- Tmax Obs. [2, 6]: 1.50 h
- AUCτ Obs. [2, 7]: 10,817.6 μg∙h/L
- Cmax Obs. [2, 7]: 1868.6 µg/L
- Tmax Obs. [2, 7]: 1.00 h
- apparent clearance, DDI study result ([2]; tegoprazan alone): 17.7 L/h
